The nature of assay [1]: Binding affinity against L-glutamate decarboxylase in pig brain. In kind it is tissue-based, Sus scrofa.
In assay [2] the target is 4-aminobutyrate aminotransferase, mitochondrial (Sus scrofa, UniProt P80147). Description: Binding affinity against Gamma-amino-N-butyrate transaminase in pig brain. In kind it is tissue-based.

From ChEMBL document CHEMBL1124723, “Selective inhibition of gamma-aminobutyric acid aminotransferase by (3R,4R),(3S,4S)- and (3R,4S),(3S,4R)-4-amino-5-fluoro-3-phenylpentanoic acids” (J Med Chem, 1990) come the findings set out here.

Each structure is given as a SMILES string.

Chain of 4-aminobutyrate aminotransferase, mitochondrial (P80147 whole entry): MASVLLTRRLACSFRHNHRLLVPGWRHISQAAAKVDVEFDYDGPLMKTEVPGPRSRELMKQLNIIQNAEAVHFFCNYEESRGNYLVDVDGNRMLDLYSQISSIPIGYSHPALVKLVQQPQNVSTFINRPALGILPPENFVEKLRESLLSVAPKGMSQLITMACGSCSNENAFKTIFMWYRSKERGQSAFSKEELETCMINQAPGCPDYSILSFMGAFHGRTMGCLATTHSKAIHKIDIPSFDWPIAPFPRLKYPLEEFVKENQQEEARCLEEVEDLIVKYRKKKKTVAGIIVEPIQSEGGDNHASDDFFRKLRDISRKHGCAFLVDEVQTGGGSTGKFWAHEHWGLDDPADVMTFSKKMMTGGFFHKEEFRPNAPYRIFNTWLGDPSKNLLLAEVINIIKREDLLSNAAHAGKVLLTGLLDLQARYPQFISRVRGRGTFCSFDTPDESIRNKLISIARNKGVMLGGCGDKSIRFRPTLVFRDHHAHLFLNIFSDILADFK

`NC(CF)CCC(=O)O` (stereo not drawn) registered an inhibitory constant (Ki) in assay [1] of 71 µM. On to `N[C@@H](CF)[C@@H](CC(=O)O)c1ccccc1`, for which the inhibition constant (Ki) in assay [2] stood at 8000 µM.

The molecule `N[C@H](CF)[C@@H](CC(=O)O)c1ccccc1` gave a Ki in assay [2] of 1000 µM. This Ki lies about 8-fold lower than the previous one.
